# pIC50: −log10 of the molar value.
# Test system: 598228-144-R-J1-PDC complex spheroids, viability
# Experiment: Anticancer human tumor 598228-144-R-J1-PDC patient-derived serous endometrial adenocarcinoma cell line growth inhibition [CLK]
# Conditions: for pIC50: curve of first compound; for viability, T/C: stronger effect = lower value
# Method in brief: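 Patient-derived tumor cells grown as complex spheroids with HUVEC endothelial cells and mesenchymal stem cells, treated with drug combinations. Concentrations descend in half-log steps from near clinical Cmax, or from 10 microM if Cmax unknown.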
# [1] = second compound 0.0316 µM, first compound 0.00949 µM
# [2] = second compound 0.0316 µM, first compound 0.03 µM
# [3] = second compound 0.0316 µM, first compound 0.0949 µM
# [4] = second compound 0.0316 µM, first compound 0.3 µM
# [5] = second compound 0.1 µM, first compound 0.00949 µM
# [6] = second compound 0.1 µM, first compound 0.03 µM
# [7] = second compound 0.1 µM, first compound 0.0949 µM
# [8] = second compound 0.1 µM, first compound 0.3 µM
# [9] = second compound 0.316 µM, first compound 0.00949 µM
# [10] = second compound 0.316 µM, first compound 0.03 µM
# [11] = second compound 0.316 µM, first compound 0.0949 µM
# [12] = second compound 0.316 µM, first compound 0.3 µM
# [13] = second compound 1 µM, first compound 0.00949 µM
# [14] = second compound 1 µM, first compound 0.03 µM
# [15] = second compound 1 µM, first compound 0.0949 µM
# [16] = second compound 1 µM, first compound 0.3 µM
# [17] = second compound 3.16 µM, first compound 0.00949 µM
# [18] = second compound 3.16 µM, first compound 0.03 µM
# [19] = second compound 3.16 µM, first compound 0.0949 µM
# [20] = second compound 3.16 µM, first compound 0.3 µM
# [21] = second compound 10 µM, first compound 0.00949 µM
# [22] = second compound 10 µM, first compound 0.03 µM
# [23] = second compound 10 µM, first compound 0.0949 µM
# [24] = second compound 10 µM, first compound 0.3 µM
# [25] = second compound 0.0316 µM, first compound 0.0316 µM
# [26] = second compound 0.0316 µM, first compound 0.1 µM
# [27] = second compound 0.0316 µM, first compound 0.316 µM
# [28] = second compound 0.0316 µM, first compound 1 µM
# [29] = second compound 0.0316 µM, first compound 3.16 µM
# [30] = second compound 0.0316 µM, first compound 10 µM
# [31] = second compound 0.1 µM, first compound 0.0316 µM
# [32] = second compound 0.1 µM, first compound 0.1 µM
# [33] = second compound 0.1 µM, first compound 0.316 µM
# [34] = second compound 0.1 µM, first compound 1 µM
# [35] = second compound 0.1 µM, first compound 3.16 µM
# [36] = second compound 0.1 µM, first compound 10 µM
# [37] = second compound 0.316 µM, first compound 0.0316 µM
# [38] = second compound 0.316 µM, first compound 0.1 µM
# [39] = second compound 0.316 µM, first compound 0.316 µM
# [40] = second compound 0.316 µM, first compound 1 µM
# [41] = second compound 0.316 µM, first compound 3.16 µM
# [42] = second compound 0.316 µM, first compound 10 µM
# [43] = second compound 1 µM, first compound 0.0316 µM
# [44] = second compound 1 µM, first compound 0.1 µM
# [45] = second compound 1 µM, first compound 0.316 µM
# [46] = second compound 1 µM, first compound 1 µM
# [47] = second compound 1 µM, first compound 3.16 µM
# [48] = second compound 1 µM, first compound 10 µM
# [49] = second compound 3.16 µM, first compound 0.0316 µM
# [50] = second compound 3.16 µM, first compound 0.1 µM
# [51] = second compound 3.16 µM, first compound 0.316 µM
# [52] = second compound 3.16 µM, first compound 1 µM
# [53] = second compound 3.16 µM, first compound 3.16 µM
# [54] = second compound 3.16 µM, first compound 10 µM
# [55] = second compound 10 µM, first compound 0.0316 µM
# [56] = second compound 10 µM, first compound 0.1 µM
# [57] = second compound 10 µM, first compound 0.316 µM
# [58] = second compound 10 µM, first compound 1 µM
# [59] = second compound 10 µM, first compound 3.16 µM
# [60] = second compound 10 µM, first compound 10 µM
# 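Note: spheroids exposed to compounds for seven days before readout.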
# 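Throughout, for viability, T/C: 100% = DMSO vehicle control wells.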
smiles,measurement,setting,value
C=CC(=O)Nc1cc(Nc2nccc(-c3cn(C)c4ccccc34)n2)c(OC)cc1N(C)CCN(C)C + CNC(=O)c1ccc(Nc2nc(OC3CCCC3)c3c(-c4ccc5nc(C)oc5c4)c[nH]c3n2)c(OC)c1,pIC50,second compound 0.0316 µM,< 6.52
same,pIC50,second compound 0.1 µM,< 6.52
same,pIC50,second compound 0.316 µM,< 6.52
same,pIC50,second compound 1 µM,< 6.52
same,pIC50,second compound 3.16 µM,< 6.52
same,pIC50,second compound 10 µM,< 6.52
same,"viability, T/C","second compound 0.0316 µM, first compound 0.000949 µM",124%
same,"viability, T/C","second compound 0.0316 µM, first compound 0.003 µM",113%
same,"viability, T/C",[1],107%
same,"viability, T/C",[2],115%
same,"viability, T/C",[3],101%
same,"viability, T/C",[4],105%
same,"viability, T/C","second compound 0.1 µM, first compound 0.000949 µM",120%
same,"viability, T/C","second compound 0.1 µM, first compound 0.003 µM",103%
same,"viability, T/C",[5],104%
same,"viability, T/C",[6],104%
same,"viability, T/C",[7],103%
same,"viability, T/C",[8],78.3%
same,"viability, T/C","second compound 0.316 µM, first compound 0.000949 µM",112%
same,"viability, T/C","second compound 0.316 µM, first compound 0.003 µM",109%
same,"viability, T/C",[9],120%
same,"viability, T/C",[10],93.5%
same,"viability, T/C",[11],96.5%
same,"viability, T/C",[12],77.7%
same,"viability, T/C","second compound 1 µM, first compound 0.000949 µM",104%
same,"viability, T/C","second compound 1 µM, first compound 0.003 µM",90.3%
same,"viability, T/C",[13],90.5%
same,"viability, T/C",[14],99%
same,"viability, T/C",[15],91.2%
same,"viability, T/C",[16],94.1%
same,"viability, T/C","second compound 3.16 µM, first compound 0.000949 µM",101%
same,"viability, T/C","second compound 3.16 µM, first compound 0.003 µM",102%
same,"viability, T/C",[17],80.9%
same,"viability, T/C",[18],87.6%
same,"viability, T/C",[19],82.7%
same,"viability, T/C",[20],62.3%
same,"viability, T/C","second compound 10 µM, first compound 0.000949 µM",86.5%
same,"viability, T/C","second compound 10 µM, first compound 0.003 µM",86.4%
same,"viability, T/C",[21],86.3%
same,"viability, T/C",[22],73.1%
same,"viability, T/C",[23],77.5%
same,"viability, T/C",[24],60.7%
CC1(C)CCC(CN2CCN(c3ccc(C(=O)NS(=O)(=O)c4ccc(NCC5CCOCC5)c([N+](=O)[O-])c4)c(Oc4cnc5[nH]ccc5c4)c3)CC2)=C(c2ccc(Cl)cc2)C1 + CNC(=O)c1ccc(Nc2nc(OC3CCCC3)c3c(-c4ccc5nc(C)oc5c4)c[nH]c3n2)c(OC)c1,pIC50,second compound 0.0316 µM,5.15
same,pIC50,second compound 0.1 µM,5.19
same,pIC50,second compound 0.316 µM,5.19
same,pIC50,second compound 1 µM,5.18
same,pIC50,second compound 3.16 µM,5.21
same,pIC50,second compound 10 µM,5.19
same,"viability, T/C",[25],96.4%
same,"viability, T/C",[26],116%
same,"viability, T/C",[27],105%
same,"viability, T/C",[28],96.5%
same,"viability, T/C",[29],100%
same,"viability, T/C",[30],28.1%
same,"viability, T/C",[31],105%
same,"viability, T/C",[32],97.6%
same,"viability, T/C",[33],103%
same,"viability, T/C",[34],99.4%
same,"viability, T/C",[35],99.4%
same,"viability, T/C",[36],19.5%
same,"viability, T/C",[37],106%
same,"viability, T/C",[38],104%
same,"viability, T/C",[39],98.5%
same,"viability, T/C",[40],103%
same,"viability, T/C",[41],105%
same,"viability, T/C",[42],16.6%
same,"viability, T/C",[43],106%
same,"viability, T/C",[44],99.9%
same,"viability, T/C",[45],96.5%
same,"viability, T/C",[46],95.4%
same,"viability, T/C",[47],99.2%
same,"viability, T/C",[48],22.8%
same,"viability, T/C",[49],99.1%
same,"viability, T/C",[50],91.1%
same,"viability, T/C",[51],79.9%
same,"viability, T/C",[52],84.3%
same,"viability, T/C",[53],89.3%
same,"viability, T/C",[54],21%
same,"viability, T/C",[55],86.3%
same,"viability, T/C",[56],89%
same,"viability, T/C",[57],83.3%
same,"viability, T/C",[58],81.2%
same,"viability, T/C",[59],97.6%
same,"viability, T/C",[60],26.6%
NC(=O)C(=Cn1cnc(-c2cc(C(F)(F)F)cc(C(F)(F)F)c2)n1)c1cncnc1 + CNC(=O)c1ccc(Nc2nc(OC3CCCC3)c3c(-c4ccc5nc(C)oc5c4)c[nH]c3n2)c(OC)c1,pIC50,second compound 0.0316 µM,6.44
same,pIC50,second compound 0.1 µM,6.28
same,pIC50,second compound 0.316 µM,6.19
same,pIC50,second compound 1 µM,6.33
same,pIC50,second compound 3.16 µM,6.52
same,pIC50,second compound 10 µM,6.80
same,"viability, T/C",[1],110%
same,"viability, T/C",[2],97.5%
same,"viability, T/C",[3],93.9%
same,"viability, T/C",[4],53.3%
same,"viability, T/C","second compound 0.0316 µM, first compound 0.949 µM",30.1%
same,"viability, T/C","second compound 0.0316 µM, first compound 3 µM",25.7%
same,"viability, T/C",[5],101%
same,"viability, T/C",[6],99.8%
same,"viability, T/C",[7],97.9%
same,"viability, T/C",[8],63.8%
same,"viability, T/C","second compound 0.1 µM, first compound 0.949 µM",36.4%
same,"viability, T/C","second compound 0.1 µM, first compound 3 µM",28.7%
same,"viability, T/C",[9],88.1%
same,"viability, T/C",[10],95.9%
same,"viability, T/C",[11],82.3%
same,"viability, T/C",[12],64%
same,"viability, T/C","second compound 0.316 µM, first compound 0.949 µM",43.5%
same,"viability, T/C","second compound 0.316 µM, first compound 3 µM",18.2%
same,"viability, T/C",[13],97.5%
same,"viability, T/C",[14],97.3%
same,"viability, T/C",[15],85%
same,"viability, T/C",[16],55.4%
same,"viability, T/C","second compound 1 µM, first compound 0.949 µM",37.1%
same,"viability, T/C","second compound 1 µM, first compound 3 µM",10.4%
same,"viability, T/C",[17],96.8%
same,"viability, T/C",[18],73.6%
same,"viability, T/C",[19],68.2%
same,"viability, T/C",[20],54.3%
same,"viability, T/C","second compound 3.16 µM, first compound 0.949 µM",30%
same,"viability, T/C","second compound 3.16 µM, first compound 3 µM",10.9%
same,"viability, T/C",[21],88.1%
same,"viability, T/C",[22],72.3%
same,"viability, T/C",[23],58.7%
same,"viability, T/C",[24],42%
same,"viability, T/C","second compound 10 µM, first compound 0.949 µM",19.6%
same,"viability, T/C","second compound 10 µM, first compound 3 µM",4.93%
Nc1ccccc1NC(=O)c1ccc(CNC(=O)OCc2cccnc2)cc1 + CNC(=O)c1ccc(Nc2nc(OC3CCCC3)c3c(-c4ccc5nc(C)oc5c4)c[nH]c3n2)c(OC)c1,pIC50,second compound 0.0316 µM,5.72
same,pIC50,second compound 0.1 µM,5.71
same,pIC50,second compound 0.316 µM,5.70
same,pIC50,second compound 1 µM,5.66
same,pIC50,second compound 3.16 µM,5.88
same,pIC50,second compound 10 µM,5.99
same,"viability, T/C",[25],115%
same,"viability, T/C",[26],105%
same,"viability, T/C",[27],101%
same,"viability, T/C",[28],83%
same,"viability, T/C",[29],23.1%
same,"viability, T/C",[30],12.2%
same,"viability, T/C",[31],111%
same,"viability, T/C",[32],97.8%
same,"viability, T/C",[33],91.4%
same,"viability, T/C",[34],79.7%
same,"viability, T/C",[35],28.4%
same,"viability, T/C",[36],7.48%
same,"viability, T/C",[37],111%
same,"viability, T/C",[38],105%
same,"viability, T/C",[39],93%
same,"viability, T/C",[40],66.6%
same,"viability, T/C",[41],39%
same,"viability, T/C",[42],4.74%
same,"viability, T/C",[43],110%
same,"viability, T/C",[44],81.9%
same,"viability, T/C",[45],88.7%
same,"viability, T/C",[46],65%
same,"viability, T/C",[47],45.6%
same,"viability, T/C",[48],6.12%
same,"viability, T/C",[49],91.6%
same,"viability, T/C",[50],86.5%
same,"viability, T/C",[51],70.2%
same,"viability, T/C",[52],55.1%
same,"viability, T/C",[53],34.4%
same,"viability, T/C",[54],4.38%
same,"viability, T/C",[55],100%
same,"viability, T/C",[56],88.9%
same,"viability, T/C",[57],73.3%
same,"viability, T/C",[58],50.5%
same,"viability, T/C",[59],25.8%
same,"viability, T/C",[60],4.15%

# From PubChem BioAssay AID2060614 (Molecular Pharmacology Branch, DTP, NCI, 2025)
